In the test the target is AKT1 (RAC-alpha serine/threonine-protein kinase) (Homo sapiens, UniProt P31749). Description: SPR (Biacore 8K+, CM7 chip, purchased AKT1 protein MCE HY-P74421). It counts as binding.
AKT1 (RAC-alpha serine/threonine-protein kinase), sequence (P31749 whole entry): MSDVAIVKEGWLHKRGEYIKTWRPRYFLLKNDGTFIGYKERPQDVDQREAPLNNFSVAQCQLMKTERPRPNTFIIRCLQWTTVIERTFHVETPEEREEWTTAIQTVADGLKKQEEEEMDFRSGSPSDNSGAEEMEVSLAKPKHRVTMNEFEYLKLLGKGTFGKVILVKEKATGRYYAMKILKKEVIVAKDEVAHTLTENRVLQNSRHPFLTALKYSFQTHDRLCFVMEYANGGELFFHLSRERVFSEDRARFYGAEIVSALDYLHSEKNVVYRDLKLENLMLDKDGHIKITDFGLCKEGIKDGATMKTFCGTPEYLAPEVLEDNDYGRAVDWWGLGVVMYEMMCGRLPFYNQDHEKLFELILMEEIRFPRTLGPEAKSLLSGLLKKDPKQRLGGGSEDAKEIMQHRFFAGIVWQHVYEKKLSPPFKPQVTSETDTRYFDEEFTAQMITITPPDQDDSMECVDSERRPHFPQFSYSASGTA

As usually defined, the Kd is the constant that tells how readily two partners part at equilibrium. The low end stands for a tighter complex, the high end for a looser complex. In turn, `CN1C(=O)[C@@H](O)[C@H](c2ccccc2)[C@@H]1[C@@H](O)c1ccccc1` [L-Clausenamide] registered a Kd of 10.3 µM.

Values taken from paper PMC12292302, “Revealing the Improving Effect and Molecular Mechanism of L-Clausenamide in Combating the Acute Lung Injury: Insights from Network Pharmacology, Molecular Docking, and In Vitro Validation” (Biology, 2025).
